Source: the METLIN SMRT retention time set (Domingo-Almenara et al. 2019)

Assay: gradient 5% acetonitrile 3 min, to 50% in 2 min, to 85% in 15 min, held 3 min, 100 µL/min
Conditions: column: Zorbax Extend-C18 2.1 x 50 mm; eluents: water / acetonitrile, 0.1% formic acid
Outline: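 Retention time was recorded from adduct peaks, which were picked computationally and each inspected manually. Pure standards ran in mixtures of ~100 molecules on HPLC coupled to a quadrupole time-of-flight mass spectrometer, in positive and negative ionization mode, through a Zorbax Extend-C18 column (2.1 × 50 mm, 1.8 μm) at 100 μL/min. Eluents were water and acetonitrile, each with 0.1% formic acid.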

RP-LC retention time	SMILES
732 s	CCC(CO)Nc1nc2ccc(Cl)cc2c2ccccc12 (stereo not drawn)
688 s	CCc1nnc2c(=O)n(CC(=O)NCc3ccccc3)c3cccnc3n12
880 s	Cc1ccccc1NC(=O)c1cccn1Cc1noc(C2CC2)n1
706 s	Cc1cc(C)n(CCC(=O)NCc2cccnc2Oc2ccccc2)n1
684 s	NC(=O)C1CCN(C(=O)Cc2csc(NC(=O)Nc3ccc(Cl)cc3)n2)CC1
751 s	O=C(NCc1cccs1)C1CCN(c2cnc(N3CCSCC3)nc2)CC1
862 s	COc1ccc(CNC(=O)Cn2cccc2-c2nnc(-c3ccccc3)o2)cc1
757 s	Cc1ccccc1Cn1c(CN2CCC(C(=O)N3CCCC3)CC2)cc2ccccc21
632 s	CC(C)c1nc2cccnc2n1CCN1CCN(C(=O)Nc2ccc(Br)cc2F)CC1
615 s	CCc1cccc(C)c1NC(=O)Cn1nc2c3cccc(C)c3ncn2c1=O
604 s	O=C1CSc2ccc(S(=O)(=O)N3CCN(c4ccccn4)CC3)cc2N1
688 s	Cc1c(-c2nnc(C(=O)NCCCN3CCCC3)o2)oc2c(C)cccc12
760 s	Cn1nc(CNC(=O)c2ccc3c(c2)OCO3)c2ccccc21
711 s	CCc1cc(=O)n(CC(=O)Nc2ccccc2F)c(N2CCOCC2)n1
877 s	COc1ccc(CNC(=O)C2CCN(S(C)(=O)=O)c3cc(Cl)ccc3O2)cc1 (stereo not drawn)
617 s	Cn1cc(CCN2CCC(C(=O)NCc3ccccc3Cl)CC2)c2cccnc21

RP-LC retention time	SMILES
1060 s	CCc1nc(-c2csc(S(=O)(=O)N3CCC(C(=O)Nc4ccc(Cl)cc4F)CC3)c2)no1
668 s	CCc1ccc(NC(=O)NCc2ccnc(N3CCSCC3)c2)cc1
1040 s	CCCC(NC(=O)C1CCCN(c2ccc(=O)n(-c3ccc(C)c(Cl)c3)n2)C1)c1cccs1 (stereo not drawn)
607 s	CN1C(=O)c2ccccc2C(C(=O)NCc2ccccn2)C1c1cccs1 (stereo not drawn)
776 s	COc1ccccc1OCCNC(=O)C1CCc2nc(N3CCC(C)CC3)ncc2C1 (stereo not drawn)
603 s	Cn1c(=O)sc2cc(S(=O)(=O)N3CCC(C(=O)NCc4cccnc4)CC3)ccc21
819 s	O=C(C1CC1)N1CCc2ccc(NS(=O)(=O)/C=C/c3ccccc3)cc21
779 s	CCN1C(=O)C2(c3ccccc31)c1[nH]c3ccccc3c1CCN2C(C)=O (stereo not drawn)
599 s	Cn1cnc2c(C(=O)N3CCN(c4ccccn4)CC3)nn(-c3ccccc3)c2c1=O
652 s	Cc1c(NC(=O)c2ccc([N+](=O)[O-])cc2Cl)c(=O)n(-c2ccccc2)n1C
767 s	COc1ccc(CNC(=O)C2CCN(c3ccc(SCc4ccccc4)nn3)CC2)c(OC)c1
772 s	CCOc1ccccc1NC(=O)Cn1c(=O)n(Cc2cccs2)c(=O)c2ncccc21
601 s	O=C(CCNc1cnc2cnccn12)NCc1ccc(F)c(Cl)c1
850 s	CCC(CC)C(=O)N1CCC2(CC1)C(=O)N(C)c1ccccc12
698 s	Nc1cc(C2CCN(C(=O)Nc3ccccc3C(F)(F)F)CC2)no1
826 s	Cc1[nH]c2ccccc2c1CC(=O)NCCc1c[nH]c2ccccc12

Second part, the compound before the results:

SMILES	RP-LC retention time
CC(C)(C)n1cc(C(=O)c2ccccc2)cc1-c1ccccc1	1350 s
CCCOc1ccc(-c2noc(Cc3nc(-c4ccc5c(c4)OCO5)cs3)n2)cc1	1310 s
COC(=O)c1cnc2nc(C)ccc2c1Nc1ccc(F)cc1F	674 s
CC(C)NC(=O)Cc1cccn1-c1cccc(Cl)c1	870 s
Cc1nc(-c2ccncc2)nc2c1CCC(=O)N2CC1COCCO1 (stereo not drawn)	591 s
CCN1C(=O)c2cccc3c(NC(=O)Nc4cccc(Cl)c4)ccc1c23	889 s
COc1ccc(/C=C2\Cc3ccccc3C2=O)cc1OC	892 s
Cc1cccc2nnc(N3CCN(C(=O)c4ccncc4)CC3)n12	551 s
CCOC(=O)c1nnc2c(-c3ccccc3OC)c(C)nn2c1C	924 s
O=C(Cn1cnc(-c2nc(-c3ccccc3)cs2)c1)Nc1ccc(F)cc1F	744 s
CCOc1cc(C(=O)Nc2nnc(-c3ccc(Cl)s3)o2)cc(OCC)c1OCC	986 s
Cc1oc(-c2[nH]ncc2C(=O)N2CCOCC2)cc1S(=O)(=O)N1CCOCC1	595 s
Cc1cccc(NC(=O)Cn2c(C)nc3c(sc4nc(-c5ccccc5)ccc43)c2=O)c1	880 s
C=CCn1c(C)c(CC(=O)NCCCC)c(=O)n2nc(-c3ccccc3)nc12	818 s
Cc1ccc(C)c(CN2CCn3c(nn(CC4CC4)c3=O)C2)c1	879 s
CCOC(=O)c1cnc2nc(C)ccc2c1Nc1ccc(OC)cc1OC	702 s
COc1cc2[nH]c3c(SCC(=O)N4CCc5ccccc5C4)ncnc3c2cc1OC	744 s
C[C@H]1CN(C(=O)c2c(F)cccc2F)C[C@@H]1c1nc(-c2ccncc2)no1	798 s
CCC(O)c1nc2ccccc2n1CC(=O)N1CCOCC1 (stereo not drawn)	566 s

SMILES	RP-LC retention time
CCOC(=O)c1c(C)c(CCC(=O)N2CCN(CC)CC2)n(CC)c1C	631 s
O=c1c(NCCc2ccc(Cl)cc2)nc2ccncc2n1Cc1ccccc1	766 s
O=C(CN1C(=O)CC(c2ccco2)Sc2ccccc21)Nc1ccccc1C(F)(F)F (stereo not drawn)	899 s
O=S1(=O)C[C@H](N2CCN(c3ccccn3)CC2)[C@@H](S(=O)(=O)c2ccc(F)cc2)C1	1040 s
CCc1noc(-c2cc(=O)n(CC(=O)NC(C)CC)c3ccccc23)n1 (stereo not drawn)	816 s
O=c1ccn(-c2ccc(Cl)cc2)nc1-c1nc(-c2ccc(Cl)cc2)no1	1040 s
CCc1ccc(NC(=O)N2CCCC2c2cc(C)on2)cc1 (stereo not drawn)	845 s
CCn1ccc2c(cc(C(=O)Nc3ccc(F)cc3)n2C)c1=O	754 s
Cc1cc(NC(=O)Nc2cc(F)ccc2F)no1	894 s
Cc1sc(C)c(S(=O)(=O)Nc2ccc3c(c2)OCCO3)c1-c1cc(C(F)(F)F)on1	1070 s
CCCOc1nn(CCC)cc1C(=O)Nc1nccs1	865 s
Cc1ccc(C)c(-c2cn3ccn(-c4cccc(F)c4)c(=O)c3n2)c1	892 s
O=C(CN1C(=O)COc2ccc(C(=O)N3CCCC3)cc21)N1CCc2ccccc2C1	721 s
CCN1CCN(CCCNC(=O)c2oc3ccc4c(c3c2C)C(O)CC(C)(C)O4)CC1 (stereo not drawn)	592 s
COc1ccc(C2CC(=O)N(c3ccccc3)C(=O)C2)cc1	842 s
Cc1ccc(-c2nnc(Cc3nc(-c4ccc(Cl)cc4)no3)o2)cc1F	1190 s
CCC[C@@H]1C[C@@H](C(=O)N[C@@H]([C@H]2O[C@H](SC)[C@H](O)[C@@H](O)[C@@H]2O)[C@@H](C)O)N(C)C1	595 s
CCCCC(=O)Nc1ccc2c(c1)nc(CN1CCN(S(C)(=O)=O)CC1)n2CC	635 s
Cc1ccc(C)c2c(=O)c3c([nH]c12)CCN(CC(=O)Nc1ccccc1F)C3	641 s

SMILES	RP-LC retention time
CN1c2cc(F)ccc2C(=O)NC12CCN(C(=O)c1ccc(F)c(F)c1)CC2	776 s
O=C(/C=C/c1ccc(CN(CCO)CCc2c[nH]c3ccccc23)cc1)NO	622 s
COc1ccc(-n2nnc(-c3nc(-c4cccc(OC)c4)cs3)c2N)cc1	1070 s
COc1ccc2c(c1)C1(CCN(C(=O)COc3ccc(Cl)cc3)C1)C(=O)N2C (stereo not drawn)	878 s
CCc1cc(C(=O)Nc2cc(C)ccc2F)nc2ccnn12	1150 s
COc1ccc(S(=O)(=O)Nc2ccc(C)n(CC(=O)O)c2=O)cc1	678 s
COc1ccc(NC(=O)Cc2csc3nc(-c4cccc(Br)c4)cn23)cc1OC	882 s
CCc1nc(-c2ccc3c(c2)CCN3C(=O)Cc2ccc(OC)c(OC)c2)no1	923 s
COc1cccc(OC)c1CN1C[C@@H](CO)[C@H](c2ccncc2)C1	500 s
C[C@@H](NC(=O)c1cc(C(=O)N[C@@H](Cc2ccccc2)[C@H](O)CNC2CC2)cc(N(C)S(C)(=O)=O)c1)c1ccccc1	705 s
Cc1ccc(-c2ccnc3nc(-c4ccccc4)nn23)cc1	1020 s
CC1=C(c2ccc(F)cc2)S(=O)(=O)N=C1N1CCCN(C(=O)Cc2ccsc2)CC1	812 s
CCOCCCNC(=O)C1CCN(S(C)(=O)=O)c2cc(Cl)ccc2O1 (stereo not drawn)	783 s
Cc1ccn2c(NC(=O)c3ccc(Cl)c([N+](=O)[O-])c3)c(-c3ccc(F)cc3)nc2c1	757 s
CCOc1ccc(S(=O)(=O)N2CCC(c3nc(C(=O)N(C)C)c(C)o3)CC2)cc1	843 s
C[C@@H]1CCN(C(=O)C(CCCN=C(N)N)NS(=O)(=O)c2cccc3c2NC[C@H](C)C3)C(C(=O)O)C1 (stereo partly drawn)	767 s
COc1cccc2cc(C(=O)N3CC(c4nc(-c5cccs5)no4)C3)oc12	856 s
Cc1nc2nc(-c3ccc(C(C)(C)C)cc3)nn2c(C)c1CC(=O)N1CCCC1	900 s
